# Experimental data published in ChEMBL document CHEMBL1697781, “Assessment of the health effects of chemicals in humans: II. Construction of an adverse effects database for QSAR modeling” (Curr Drug Discov Technol, 2004).
# System: Hepatotoxicity
# Experiment: FDA HLAED, serum glutamic oxaloacetic transaminase (SGOT) increase
# Details: human
# Wherever GGT Increase - Index Value is given: reference of the scale not given here.
# Wherever LDH Increase - Index Value is given: reference of the scale not given here.
Structure (SMILES),SGOT Increase - Activity Score,SGOT Increase - Index Value,SGOT Increase - Number of Reports
COc1cc([C@@H]2c3cc4c(cc3[C@H](O)[C@H]3COC(=O)[C@H]23)OCO4)cc(OC)c1OC [PODOFILOX],Inactive,0,< 4
CC[C@H](C)C(=O)O[C@H]1C[C@H](O)C=C2C=C[C@H](C)[C@H](CC[C@@H](O)C[C@@H](O)CC(=O)O)[C@H]21 [PRAVASTATIN],Active,6.2,>= 4
O=C1CN=C(c2ccccc2)c2cc(Cl)ccc2N1CC1CC1 [PRAZEPAM],Inactive,0.3,< 4
CCN(CC)CCNC(=O)c1ccc(N)cc1 [PROCAINAMIDE],Inactive,0,< 4
CCCNCC(O)COc1ccccc1C(=O)CCc1ccccc1 (stereo unspecified) [PROPAFENONE],Active,5.7,>= 4
CC(C)c1cccc(C(C)C)c1O [PROPOFOL],Inactive,0.7,>= 4
Fc1ccccc1C1=NCC(=S)N(CC(F)(F)F)c2ccc(Cl)cc21 [QUAZEPAM],Inactive,0,< 4

# System: Hepatotoxicity
# Experiment: FDA HLAED, gamma-glutamyl transferase (GGT) increase
# Details: human
Structure (SMILES),GGT Increase - Activity Score,GGT Increase - Index Value,GGT Increase - Number of Reports
COc1cc([C@@H]2c3cc4c(cc3[C@H](O)[C@H]3COC(=O)[C@H]23)OCO4)cc(OC)c1OC [PODOFILOX],Inactive,0,< 4
CC[C@H](C)C(=O)O[C@H]1C[C@H](O)C=C2C=C[C@H](C)[C@H](CC[C@@H](O)C[C@@H](O)CC(=O)O)[C@H]21 [PRAVASTATIN],Active,5.3,>= 4
O=C1CN=C(c2ccccc2)c2cc(Cl)ccc2N1CC1CC1 [PRAZEPAM],Inactive,0,< 4
CCN(CC)CCNC(=O)c1ccc(N)cc1 [PROCAINAMIDE],Inactive,0,< 4
CCCNCC(O)COc1ccccc1C(=O)CCc1ccccc1 (stereo unspecified) [PROPAFENONE],Inactive,2.9,< 4
CC(C)c1cccc(C(C)C)c1O [PROPOFOL],Inactive,0.1,< 4
Fc1ccccc1C1=NCC(=S)N(CC(F)(F)F)c2ccc(Cl)cc21 [QUAZEPAM],Inactive,0,< 4

# System: Hepatotoxicity
# Experiment: FDA HLAED, liver enzyme composite activity
# Details: human
Structure (SMILES),Composite Activity - Active,Composite Activity - Marginal,Composite Activity - Score
COc1cc([C@@H]2c3cc4c(cc3[C@H](O)[C@H]3COC(=O)[C@H]23)OCO4)cc(OC)c1OC [PODOFILOX],0,0,Inactive
CC[C@H](C)C(=O)O[C@H]1C[C@H](O)C=C2C=C[C@H](C)[C@H](CC[C@@H](O)C[C@@H](O)CC(=O)O)[C@H]21 [PRAVASTATIN],4,1,Active
O=C1CN=C(c2ccccc2)c2cc(Cl)ccc2N1CC1CC1 [PRAZEPAM],0,0,Inactive
CCN(CC)CCNC(=O)c1ccc(N)cc1 [PROCAINAMIDE],0,0,Inactive
Fc1ccccc1C1=NCC(=S)N(CC(F)(F)F)c2ccc(Cl)cc21 [QUAZEPAM],0,0,Inactive

# Same assay, conditions: human, Liver
Structure (SMILES),Composite Activity - Active,Composite Activity - Marginal,Composite Activity - Score
CCCNCC(O)COc1ccccc1C(=O)CCc1ccccc1 (stereo unspecified) [PROPAFENONE],3,0,Active
CC(C)c1cccc(C(C)C)c1O [PROPOFOL],0,0,Inactive

# System: Hepatotoxicity
# Experiment: FDA HLAED, alkaline phosphatase increase
# Details: human
Structure (SMILES),Alkaline Phosphatase Increase - Activity Score,Alkaline Phosphatase Increase - Index Value,Alkaline Phosphatase Increase - Number of Reports
COc1cc([C@@H]2c3cc4c(cc3[C@H](O)[C@H]3COC(=O)[C@H]23)OCO4)cc(OC)c1OC [PODOFILOX],Inactive,0,< 4
CC[C@H](C)C(=O)O[C@H]1C[C@H](O)C=C2C=C[C@H](C)[C@H](CC[C@@H](O)C[C@@H](O)CC(=O)O)[C@H]21 [PRAVASTATIN],Active,4.5,>= 4
O=C1CN=C(c2ccccc2)c2cc(Cl)ccc2N1CC1CC1 [PRAZEPAM],Inactive,0.3,< 4
CCN(CC)CCNC(=O)c1ccc(N)cc1 [PROCAINAMIDE],Inactive,0,< 4
CCCNCC(O)COc1ccccc1C(=O)CCc1ccccc1 (stereo unspecified) [PROPAFENONE],Active,7.6,>= 4
CC(C)c1cccc(C(C)C)c1O [PROPOFOL],Inactive,0.4,>= 4
Fc1ccccc1C1=NCC(=S)N(CC(F)(F)F)c2ccc(Cl)cc21 [QUAZEPAM],Inactive,0,< 4

# System: Hepatotoxicity
# Experiment: FDA HLAED, serum glutamic pyruvic transaminase (SGPT) increase
# Details: human
Structure (SMILES),SGPT Increase - Activity Score,SGPT Increase - Index Value,SGPT Increase - Number of Reports
COc1cc([C@@H]2c3cc4c(cc3[C@H](O)[C@H]3COC(=O)[C@H]23)OCO4)cc(OC)c1OC [PODOFILOX],Inactive,0,< 4
CC[C@H](C)C(=O)O[C@H]1C[C@H](O)C=C2C=C[C@H](C)[C@H](CC[C@@H](O)C[C@@H](O)CC(=O)O)[C@H]21 [PRAVASTATIN],Active,6.3,>= 4
O=C1CN=C(c2ccccc2)c2cc(Cl)ccc2N1CC1CC1 [PRAZEPAM],Inactive,0.3,< 4
CCN(CC)CCNC(=O)c1ccc(N)cc1 [PROCAINAMIDE],Inactive,0,< 4
CCCNCC(O)COc1ccccc1C(=O)CCc1ccccc1 (stereo unspecified) [PROPAFENONE],Active,4.7,>= 4
CC(C)c1cccc(C(C)C)c1O [PROPOFOL],Inactive,0.5,>= 4
Fc1ccccc1C1=NCC(=S)N(CC(F)(F)F)c2ccc(Cl)cc21 [QUAZEPAM],Inactive,0,< 4

# System: Hepatotoxicity
# Experiment: FDA HLAED, lactate dehydrogenase (LDH) increase
# Details: human
Structure (SMILES),LDH Increase - Activity Score,LDH Increase - Index Value,LDH Increase - Number of Reports
COc1cc([C@@H]2c3cc4c(cc3[C@H](O)[C@H]3COC(=O)[C@H]23)OCO4)cc(OC)c1OC [PODOFILOX],Inactive,0,< 4
CC[C@H](C)C(=O)O[C@H]1C[C@H](O)C=C2C=C[C@H](C)[C@H](CC[C@@H](O)C[C@@H](O)CC(=O)O)[C@H]21 [PRAVASTATIN],Marginally Active,3.1,>= 4
O=C1CN=C(c2ccccc2)c2cc(Cl)ccc2N1CC1CC1 [PRAZEPAM],Inactive,0,< 4
CCN(CC)CCNC(=O)c1ccc(N)cc1 [PROCAINAMIDE],Inactive,0,< 4
CCCNCC(O)COc1ccccc1C(=O)CCc1ccccc1 (stereo unspecified) [PROPAFENONE],Inactive,1.9,< 4
CC(C)c1cccc(C(C)C)c1O [PROPOFOL],Inactive,0.5,>= 4
Fc1ccccc1C1=NCC(=S)N(CC(F)(F)F)c2ccc(Cl)cc21 [QUAZEPAM],Inactive,0,< 4
